{"source": "paper PMC9166766", "about": "(Experimental & Molecular Medicine, 2022)", "key": {"[1]": {"test_system": "p38α", "test": "In vitro kinase assay, p38α", "format": "biochemical", "settings": "GST-tagged peptide, 1 h, 30 °C, 50 μM ATP", "procedure": "(§1) We used the purified GST-tagged peptides for the in vitro kinase assays with activated recombinant kinases obtained from Proqinase GmbH (Freiburg, Germany). We performed the kinase assays in reaction buffer (50 mM HEPES-NaOH, pH 7.5, 3 mM MgCl2, 3 mM MnCl2, 3 μM sodium orthovanadate, 1 mM dithiothreitol, 50 μM unlabeled ATP, 5 μCi ^32P-γ-ATP) for 1 h at 30 °C. We stopped the reaction by adding 5× sample buffer and separated the proteins using SDS-PAGE. The gel was stained with Coomassie Brilliant Blue, dried, and developed on X-ray film.\n(§2) The phosphorylated threonine of the immunoprecipitated peptide with HA antibody was detected with [PXpTP] antibody. b In vitro kinase assays using purified GST-tagged CABIN1 peptide and PKC downstream kinases. c In vitro kinase assays using purified GST-tagged peptides and kinases included in the MAPK family. d Immunoprecipitation assays using Flag-MAPKs and HA-CABIN1 in HEK293T cells. e, f In vitro kinase assays using p38α and substituted CABIN1 peptides. g Jurkat T cells expressing HA-mCherry-tagged CABIN1 peptide were treated with 10 μM p38α inhibitors for 16 h. Immunoprecipitation was performed with HA antibody and detected by western blotting. h Phosphorylated threonine and peptide-bound CNA of g were measured using ImageJ, and the ratio of phosphorylation and calcineurin binding to the CABIN1 peptide was calculated (n = 6). […]"}, "[2]": {"test_system": "CNA (calcineurin catalytic subunit)", "test": "In vitro peptide competition assay (GST-tagged peptide / His6-tagged CNA)", "format": "binding", "settings": "competitor CABIN1-L-1; molar ratio GST-peptide to competitor 1:50 to 1:400"}, "[3]": {"test_system": "ERK2", "test": "In vitro kinase assay, ERK2", "format": "biochemical", "settings": "GST-tagged peptide, 1 h, 30 °C, 50 μM ATP", "procedure": "as §1, §2"}, "[4]": {"test_system": "NFAT transcriptional activity", "test": "NFAT-luc luciferase reporter assay in Jurkat T cells", "format": "cell-based", "settings": "GST-tagged peptides, 40 nM PMA and 1 μM ionomycin 8 h", "procedure": "(§3) To measure the transcriptional activity of NFAT, we cotransfected Jurkat T cells with GST-tagged peptides and NFAT-luc by electroporation. After 24 h, we pretreated the cells with 0.5 μM FK506 for 1 h and then treated them with 40 nM PMA and 1 μM ionomycin for 8 h. For the mammalian two-hybrid assay, we cotransfected HEK293T cells with GAL4 DBD-tagged CABIN1, VIVIT, chimeric and substituted peptides, VP16 activation domain-tagged CNAβ2, and pG5-luc (luciferase reporter plasmid containing the GAL4-responsive promoter) for 24 h. We lysed the harvested cells with a luciferase assay lysis buffer (17 mM KH2PO4, 183 mM K2HPO4, pH 7.8, 0.2% [v/v] Triton X-100) and sonicated them briefly. We measured luciferase activity for each cell lysate using an Infinite M200 (Tecan, Männedorf, Switzerland). In addition, we confirmed the expression level of the transfected proteins by Western blotting.\n(§4) RU response units, NC negative control.\n(1 picture or pasted object on this page, not shown here)"}, "[5]": {"test_system": "CNAβ2 (calcineurin catalytic subunit)", "test": "Mammalian two-hybrid assay (VP16 AD-CNAβ2 and GAL4 DBD-peptides, pG5-luc) in HEK293T cells", "format": "cell-based", "procedure": "as §3\nA mammalian two-hybrid assay using these peptides was performed (bottom). The compositions of the transfected DNA are described in Supplementary Fig. 1a–c. All experiments were repeated three times and are presented as the mean ± standard deviation. […] SE short exposure, LE long exposure, NC negative control, WT wild-type.\nNC negative control, WT wild-type."}, "[6]": {"test_system": "JNK1", "test": "In vitro kinase assay, JNK1", "format": "biochemical", "settings": "GST-tagged peptide, 1 h, 30 °C, 50 μM ATP", "procedure": "as §1, §2"}, "[7]": {"test_system": "MKK4", "test": "In vitro kinase assay, MKK4", "format": "biochemical", "settings": "GST-tagged peptide, 1 h, 30 °C, 50 μM ATP", "procedure": "as §1, §2"}, "[8]": {"test_system": "CABIN1 peptide threonine 9 phosphorylation", "test": "Phosphorylation of threonine 9 of the expressed peptide in Jurkat T cells (PXpTP western blot, LC-MS/MS)", "format": "cell-based", "settings": "HA-mCherry-tagged peptide; western blot (PXpTP antibody) and LC-MS/MS", "description": "We lysed the cells in IP150 buffer and immunoprecipitated Flag- and HA-tagged proteins with Anti-FLAG ® M2 Affinity Gel (Sigma–Aldrich) and Pierce™ Anti-HA Agarose (Thermo Fisher Scientific), respectively. The composition of the buffer and the subsequent process was described previously. To quantify the western blot results, we measured the band areas using ImageJ (https://imagej.nih.gov/ij/).\nWe purified HA-mCherry-tagged CABIN1-L-1-2 peptides expressed in Jurkat T cells by immunoprecipitating 4 mg of lysates with Pierce™ Anti-HA Agarose. We eluted the bead-bound proteins by competition with 1 mg/ml HA peptide. After separation by SDS-PAGE and staining with Coomassie Brilliant Blue, we analyzed the purified proteins by LC-MS/MS (ProteomeTech, Inc., Seoul, Korea).\nas §4\nThe phosphorylated threonine of the immunoprecipitated peptide with HA antibody was detected with [PXpTP] antibody. b In vitro kinase assays using purified GST-tagged CABIN1 peptide and PKC downstream kinases. c In vitro kinase assays using purified GST-tagged peptides and kinases included in the MAPK family. d Immunoprecipitation assays using Flag-MAPKs and HA-CABIN1 in HEK293T cells. e, f In vitro kinase assays using p38α and substituted CABIN1 peptides. g Jurkat T cells expressing HA-mCherry-tagged CABIN1 peptide were treated with 10 μM p38α inhibitors for 16 h. Immunoprecipitation was performed with HA antibody and detected by western blotting. h Phosphorylated threonine and peptide-bound CNA of g were measured using ImageJ, and the ratio of phosphorylation and calcineurin binding to the CABIN1 peptide was calculated (n = 6). […] Statistical differences were determined using one-way ANOVA. *p < 0.05, **p < 0.01, ***p < 0.001, CBB Coomassie Brilliant Blue, NC negative control."}, "[9]": {"test_system": "calcineurin (CNA) phosphatase activity", "test": "In vitro calcineurin phosphatase activity assay", "format": "biochemical", "settings": "purified GST-tagged peptides with CNA 30 min room temperature", "procedure": "We measured calcineurin phosphatase activity in vitro using a calcineurin phosphatase assay kit (BML-AK804, Enzo Life Sciences, Farmingdale, NY, USA). We incubated GST or GST-tagged peptides with CNA for 30 min at room temperature and then followed the manufacturer’s instructions. To measure endogenous calcineurin phosphatase activity, we transiently transfected Jurkat T cells with CAG-HA-mCherry-peptides by electroporation. After 24 h, we pretreated the Jurkat T cells with FK506 for 1 h before activating them with PMA and ionomycin. Next, we washed the cells with TBS buffer (20 mM Tris, pH 7.2, 150 mM NaCl), resuspended them with lysis buffer from the calcineurin cellular activity assay kit (BML-AK816, Enzo Life Sciences), and kept them on ice for 30 min. We collected the lysate supernatant and removed free phosphate by gel filtration using the Desalting Column Resin included in the kit. Next, we followed the manufacturer’s instructions.\nJurkat T cells expressing only HA-mCherry were used as a negative control, and cells treated with FK506 were used as a positive control. d In vitro calcineurin phosphatase activity assays using purified GST-tagged peptides. Purified GST was used as a negative control. […] Statistical differences were determined using one-way ANOVA. *p < 0.05, NS nonsignificant, NC negative control."}}, "note": "No end group written: not given here.", "data": [{"substance": "CABIN1-L-1-2: 10 amino acids from proline 2146 to proline 2155 of full-length CABIN1; expressed GST-, GAL4 DBD- or HA-mCherry-tagged (PEITVTPPTP; also: expressed GST-, GAL4 DBD- or HA-mCherry-tagged, end not given here)", "values": [{"measurement": "phosphorylation by p38α", "setting": "[1]", "value": "phosphorylated"}, {"measurement": "interference with interaction between GST-tagged VIVIT peptide and His6-tagged CNA", "setting": "[2]", "value": "dose-dependently interfered with the interaction"}, {"measurement": "phosphorylation by ERK2", "setting": "[3]", "value": "phosphorylated"}, {"measurement": "NFAT luciferase activity", "setting": "[4]; n = 3", "value": "repressed luciferase activity compared with the negative control"}, {"measurement": "inhibitory effect on NFAT luciferase relative to VIVIT peptide", "setting": "[4]; n = 3, vs VIVIT peptide", "value": "approximately four times stronger than that of the VIVIT peptide"}, {"measurement": "interaction with / binding affinity to CNA (mammalian two-hybrid)", "setting": "[5]; CNAβ2, 24 h, repeated three times", "value": "still bound to CNA"}, {"measurement": "interaction with CNA, effect of 1 μM ionomycin", "setting": "[5]; with or without 1 μM ionomycin", "value": "did not affect the interaction"}, {"measurement": "phosphorylation by JNK1", "setting": "[6]", "value": "phosphorylated"}, {"measurement": "phosphorylation by MKK4", "setting": "[7]", "value": "directly phosphorylate"}, {"measurement": "threonine 9 phosphorylation in Jurkat T cells", "setting": "[8]", "value": "observed threonine 9 phosphorylation"}, {"measurement": "calcineurin phosphatase activity in vitro", "setting": "[9]", "value": "did not reduce the phosphatase activity of CNA in vitro"}]}]}
